The values that follow are results of earlier work, collected in patent US20260272891A1, “TREATMENT OF AUTOIMMUNE DISEASES AND CANCER WITH PROTEASE INHIBITORS” (Lundquist Institute for Biomedical Innovation at …, priority 2023, published 2026).

Each structure is given as a SMILES string.

The subject of this data set is all variants of concern, including Omicron and its variants. Conditions: cited from earlier work.

For `CC(C)(C)[C@H](NC(=O)C(F)(F)F)C(=O)N1C[C@H]2[C@@H]([C@H]1C(=O)N[C@H](C#N)C[C@@H]1CCNC1=O)C2(C)C` [NMV, nirmatrelvir], the antiviral activity entry is recorded as “antiviral activity against all variants of concern”.
